From patent US20090028925A1, “Novel Phosphinic Acid-Containing Thyromimetics” (priority 2005, published 2009) come the findings set out here.

For orientation: Ki means a dissociation constant, usually derived from enzyme kinetics or from competition with a known ligand.

Assay [1] addresses T1, human thyroid hormone receptors TRα1 (Homo sapiens, UniProt P10827).
T1 construct: made in house; host or cells: Sf9 insect cells (baculovirus)
T1 sequence (P10827 1-410 isoform P10827-2): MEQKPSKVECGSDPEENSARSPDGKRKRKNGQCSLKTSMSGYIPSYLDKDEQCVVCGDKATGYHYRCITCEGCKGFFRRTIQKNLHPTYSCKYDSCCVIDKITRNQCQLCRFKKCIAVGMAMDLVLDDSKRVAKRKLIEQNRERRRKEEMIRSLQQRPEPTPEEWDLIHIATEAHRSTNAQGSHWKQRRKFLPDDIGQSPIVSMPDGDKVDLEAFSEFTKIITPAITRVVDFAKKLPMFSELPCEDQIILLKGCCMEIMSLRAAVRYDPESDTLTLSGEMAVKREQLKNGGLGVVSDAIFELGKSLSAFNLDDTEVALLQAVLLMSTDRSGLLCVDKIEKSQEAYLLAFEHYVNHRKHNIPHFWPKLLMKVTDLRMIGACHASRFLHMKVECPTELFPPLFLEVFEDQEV
T1 sequence (P19793 1-462 partner): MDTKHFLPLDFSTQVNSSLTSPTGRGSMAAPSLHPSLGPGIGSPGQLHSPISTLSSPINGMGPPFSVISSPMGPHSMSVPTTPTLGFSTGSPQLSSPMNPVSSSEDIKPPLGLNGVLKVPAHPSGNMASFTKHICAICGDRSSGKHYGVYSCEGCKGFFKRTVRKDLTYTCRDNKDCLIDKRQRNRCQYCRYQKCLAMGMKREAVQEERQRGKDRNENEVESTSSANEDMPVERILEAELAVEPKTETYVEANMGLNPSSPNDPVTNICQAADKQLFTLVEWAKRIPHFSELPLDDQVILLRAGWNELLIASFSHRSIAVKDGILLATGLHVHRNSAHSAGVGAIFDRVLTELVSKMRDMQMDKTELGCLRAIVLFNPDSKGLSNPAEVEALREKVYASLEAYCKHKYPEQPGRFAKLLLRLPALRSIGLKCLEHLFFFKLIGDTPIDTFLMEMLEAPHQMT
The experiment in a line: Receptor binding to TRα1 (gel filtration and scintillation proximity assay, labeled T3). The note with it: read-out: Ki TRα. The procedure:
(§1) Methods: Baculoviruses expressing TRα1, TRβ1 and RXRα were generated using cDNA and other reagents from Invitrogen (Carlsbad, Calif.). To produce TR/RXR heterodimer proteins, the sf9 insect cells were first grown to a density of 1-5×10^5 cells/mL. […] and RXRα baculovirus stocks were added to the cell culture with a ratio of 1 to 1 (multiplicity of infection=10). The cells were harvested three days after the infection.
(§2) Binding of compounds to either the TRα1 or TRβ1 were also performed by means of scintillation proximity assays (SPA). The SPA assay, a common method used for the quantitation of receptor-ligand equilibria, makes use of special beads coated with a scintillant and a capture molecule, copper, which binds to the histidine-tagged α or β receptor.
(In general: SEC sorts molecules by how far they enter the pores of the column.)

Assay [2] concerns the target T2, human thyroid hormone receptors TRβ1 (Homo sapiens, UniProt P10828).
T2 construct: made in house; host or cells: Sf9 insect cells (baculovirus)
T2 sequence (P10828 1-461): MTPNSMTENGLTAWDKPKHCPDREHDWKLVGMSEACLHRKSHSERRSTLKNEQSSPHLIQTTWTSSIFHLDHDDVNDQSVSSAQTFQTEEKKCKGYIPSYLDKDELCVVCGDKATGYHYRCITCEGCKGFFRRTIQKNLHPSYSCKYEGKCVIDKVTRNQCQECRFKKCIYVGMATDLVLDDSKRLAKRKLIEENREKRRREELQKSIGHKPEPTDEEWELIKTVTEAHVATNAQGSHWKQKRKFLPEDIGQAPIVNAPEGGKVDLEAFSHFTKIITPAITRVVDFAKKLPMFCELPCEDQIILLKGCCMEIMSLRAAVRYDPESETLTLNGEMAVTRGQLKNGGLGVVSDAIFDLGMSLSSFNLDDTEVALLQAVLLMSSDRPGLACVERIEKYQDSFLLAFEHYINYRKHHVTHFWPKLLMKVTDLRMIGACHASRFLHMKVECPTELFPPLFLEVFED
T2 sequence (P19793 1-462 partner): T1 sequence (P19793 1-462 partner)
The experiment in a line: Receptor binding to TRβ1 (gel filtration and scintillation proximity assay, labeled T3). The settings on record: read-out: Ki TRβ. As for the experimental part:
as §1, §2

The test system of the next assay is plasma cholesterol. The experiment in a line: Cholesterol lowering in hypercholesterolemic rats. Type of assay: in vivo. The settings on record: for change in vivo at 0.2 mg/kg/day / change in vivo at 0.5 mg/kg/day: Rattus norvegicus, read-out: % Cholesterol Lowering; for cholesterol lowering: hypercholesterolemic rats, 0.5 mg/kg/d orally.
Where [3] appears, read: ip, delivered i.p (0.2 mg/kg/d), percentage change from pre-dose cholesterol.
The mark [4] stands for this setting: po, delivered p.o. (0.2 mg/kg/d), percentage change from pre-dose cholesterol.
The mark [5] stands for this setting: po, delivered p.o. (0.5 mg/kg/d), percentage change from pre-dose cholesterol.

Where two headings read alike, the source gives them in different places.

Regarding `O=P(O)(O)Cc1cc(Cl)c(Oc2ccc(O)c(Cc3ccc(F)cc3)c2)c(Cl)c1` [Compound 11, 3,5-dichloro-4-[3′-(4-fluorobenzyl)-4′-hydroxyphenoxy]benzylphosphonic acid], the Ki in assay [1] (SPA data) was determined as 121 nM; in assay [2] (SPA data) it was 30.3 nM. The results for the change in vivo at 0.2 mg/kg/day with plasma cholesterol (setting [3]) and in the assay with plasma cholesterol (setting [4]) were -36.4% and -5.1%, respectively.

`CCC(CC)c1cc(Cc2c(C)cc(OCP(=O)(O)O)cc2C)ccc1O` [Compound 7-9, [3,5-dimethyl-4-[3′-(1-ethylpropyl)-4′-hydroxybenzyl]phenoxy]methylphosphonic acid]: the Ki in assay [1] (SPA data) stood at 110 nM; in assay [2] (SPA data) it was 5.4 nM. Also, the change in vivo at 0.2 mg/kg/day with plasma cholesterol (setting [3]) was -63.2%; in the assay on plasma cholesterol (setting [4]), -38.4%.

As to `Cc1cc(OCP(=O)(O)O)c(C)c(C)c1Cc1ccc(O)c(C(C)C)c1` [Compound 61, [4-(4′-hydroxy-3′-isopropylbenzyl)-2,3,5-trimethylphenoxymethyl]phosphonic acid], the Ki in assay [1] (SPA data) came to 42.7 nM; in assay [2] (SPA data), 1.4 nM. In addition, the change in vivo at 0.2 mg/kg/day in the assay with plasma cholesterol (setting [4]) was -33.7%.

Take `CC(C)c1cc(Cc2c(Cl)cc(OCP(=O)(O)O)cc2Cl)cc(Br)c1O` [Compound 7-14, [3,5-dichloro-4-(5′-bromo-4′-hydroxy-3′-iso-propylbenzyl)phenoxy]methylphosphonic acid]: the Ki in assay [1] (SPA data) came out at 429 nM; in assay [2] (SPA data), 52 nM. Besides, the change in vivo at 0.2 mg/kg/day in the assay with plasma cholesterol (setting [3]) is -32.9%.

`CCC(C)c1cc(Cc2c(C)cc(CCP(=O)(O)O)cc2C)ccc1O` (stereo not shown) [Compound 24-3, 2-[4-(3′-sec-butyl-4′-hydroxy-benzyl)-3,5-dimethyl-phenyl]-ethylphosphonic acid]: the inhibition constant (Ki) in assay [1] (SPA data) came out at 113 nM; in assay [2] (SPA data), 2.87 nM. Also, the change in vivo at 0.2 mg/kg/day in the assay with plasma cholesterol (setting [3]) was -48.6%.

For the compound `Cc1cc2oc(P(=O)(O)O)cc2c(C)c1Cc1ccc(O)c(C(C)C)c1` [Compound 45, [4,6-Dimethyl-5-(4′-hydroxy-3′-iso-propyl)benzyl]benzofuran-2-phosphonic Acid], the Ki in assay [1] (SPA data) was found to be 216 nM; in assay [2] (SPA data) it was 14 nM. The change in vivo at 0.2 mg/kg/day in the assay on plasma cholesterol (setting [3]) was -46.3%; in the assay on plasma cholesterol (setting [4]), -40.4%.

Take `COP(=O)(O)Cc1cc(Br)c(Oc2ccc(O)c(C(C)C)c2)c(Br)c1` [Compound 69-2, [3,5-dibromo-4-(4′-hydroxy-3′-isopropylphenoxy)benzyl]phosphonic Acid Monomethyl Ester]: the figures for the Ki in assay [1] (SPA data) and in assay [2] (SPA data) were 2.8 nM and 0.8 nM, respectively. For the same compound, in the assay with plasma cholesterol (po), the change in vivo at 0.2 mg/kg/day was -49.9%.

For the compound `CC(C)c1cc(Oc2c(Br)cc(OCP(=O)(O)O)cc2Br)ccc1O` [Compound 8-1, [3,5-dibromo-4-(3′-iso-propyl-4′-hydroxyphenoxy)phenoxy]methylphosphonic acid], the Ki in assay [1] stood at 18.6 nM; in assay [2], 2.51 nM. Moreover, the change in vivo at 0.2 mg/kg/day with plasma cholesterol (setting [4]) was -32.2%.

On to `CC(C)c1cc(Oc2c(Br)cc(NCP(=O)(O)O)cc2Br)ccc1O` [Compound 22-1, [3,5-dibromo-4-(4′-hydroxy-3′-iso-propylphenoxy)phenylamino]methylphosphonic acid], for which, in assay [2], the inhibition constant (Ki) is 1.5 nM. The change in vivo at 0.2 mg/kg/day in the assay on plasma cholesterol (setting [4]) is -19.9%.

With `Cc1cc(OCP(=O)(O)O)cc(C)c1Cc1ccc(O)c(Cc2ccc(F)cc2)c1` [Compound 40, [3,5-dimethyl-4-[3′-(4-fluoro-benzyl)-4′-hydroxy-benzyl]phenoxy]methylphosphonic acid], the inhibitory constant (Ki) in assay [1] (SPA data) was 30 nM; in assay [2] (SPA data) it was 1.1 nM. Further, the change in vivo at 0.2 mg/kg/day in the assay with plasma cholesterol (setting [3]) is -64.2%; in the assay on plasma cholesterol (setting [4]), -27.3%.

In the case of `CC(C)c1cc(Oc2c(Cl)cc(OCP(=O)(O)O)cc2Cl)ccc1O` [Compound 8-2, [3,5-dichloro-4-(3′-iso-propyl-4′-hydroxyphenoxy)phenoxy]methylphosphonic acid], the values for the Ki in assay [1] (SPA data) and in assay [2] (SPA data) were 114 nM and 20 nM, respectively. The change in vivo at 0.2 mg/kg/day with plasma cholesterol (setting [3]) is -48%.

Take `CCc1cc(Cc2c(C)cc(OCP(=O)(O)O)cc2C)ccc1O` [Compound 7-8, [3,5-dimethyl-4-[3′-ethyl-4′-hydroxybenzyl]phenoxy]methylphosphonic acid]: the Ki in assay [1] was 62 nM; in assay [2] it was 9.7 nM. For the same compound, the change in vivo at 0.2 mg/kg/day with plasma cholesterol (setting [3]) is -28.6%.

`CC(C)c1cc(Oc2c(Br)cc(C[P@@]3(=O)OCC[C@@H](c4cccc(Cl)c4)O3)cc2Br)ccc1O` [Compound 13-9, Cis-(S)-2-[3,5-dibromo-4-(4′-hydroxy-3′-iso-propylphenoxy)benzyl]-4-(3-chlorophenyl)-2-oxo2λ^5-[1,3,2]-dioxaphosphonane]: in the assay with plasma cholesterol (setting [5]), the change in vivo at 0.5 mg/kg/day is -10.9%. In addition, in the assay with plasma cholesterol, the cholesterol lowering result is on record as “failed to demonstrate cholesterol lowering”.

With `CCC(C)c1cc(Cc2c(C)cc(OCP(=O)(OCOC(=O)C(C)(C)C)OCOC(=O)C(C)(C)C)cc2C)ccc1O` (stereo not shown) [Compound 12-4, Di-(pivaloyloxymethyl)[3,5-dimethyl-4-(4′-hydroxy-3′-sec-butylbenzyl)phenoxy]methylphosphonate], in the assay on plasma cholesterol (setting [5]), the change in vivo at 0.5 mg/kg/day was -30.5%.

For `Cc1cc(CCP(=O)(O)O)cc(C)c1Cc1ccc(O)c(C(C)C)c1` [Compound 24-1, 2-[3,5-dimethyl-4-(4′-hydroxy-3′-iso-propylbenzyl)phenyl]ethylphosphonic acid], the inhibition constant Ki in assay [2] came to 31 nM. Besides, the change in vivo at 0.2 mg/kg/day with plasma cholesterol (setting [3]) was -35.4%.

For the compound `CCOC(=O)[C@H](C)NP(=O)(COc1cc(C)c(Cc2ccc(O)c(C(C)CC)c2)c(C)c1)N[C@@H](C)C(=O)OCC` (stereo partly drawn) [Compound 15-4, di-N-(L-1-ethoxycarbonylethylamino)[3,5-dimethyl-4-(4′-hydroxy-3′-sec-butylbenzyl)phenoxy]methylphosphonamide], the change in vivo at 0.5 mg/kg/day with plasma cholesterol (setting [5]) is -39.6%.

For the compound `CC(C)c1cc(Cc2c(Cl)cc(OCP(=O)(OCOC(=O)C(C)(C)C)OCOC(=O)C(C)(C)C)cc2Cl)ccc1O` [Compound 12-8, Di(pivaloyloxymethyl)[3,5-dichloro-4-(4′-hydroxy-3′-iso-propylbenzyl)phenoxy]methylphosphonate], the change in vivo at 0.5 mg/kg/day with plasma cholesterol (setting [5]) is -33.7%.

As for `CC(C)c1cc(Cc2c(Cl)cc(OC[P@@]3(=O)OCC[C@@H](c4cccc(Cl)c4)O3)cc2Cl)ccc1O` (relative stereo) [Compound 13-11, Cis(S)-2-[(3,5-dichloro-4-(4′-hydroxy-3′-iso-propylbenzyl)phenoxy)methyl]-4-(3-chlorophenyl)-2-oxo-2λ^5-[1,3,2]-dioxaphosphonane], in the assay on plasma cholesterol (delivered p.o. (0.5 mg/kg/d), percentage change from pre-dose cholesterol), the “% Cholesterol Lowering” value is −24.8%.

In the case of `CCOC(=O)[C@H](C)NP(=O)(Cc1cc(Br)c(Oc2ccc(O)c(C(C)C)c2)c(Br)c1)N[C@@H](C)C(=O)OCC` [Compound 15-5, di-N-(L-1-ethoxycarbonylethylamino)[3,5-dibromo-4-(4′-hydroxy-3′-iso-propylphenoxy)benzyl]phosphonamide], in the assay on plasma cholesterol (setting [5]), the change in vivo at 0.5 mg/kg/day is -29.9%. Further, in the assay on plasma cholesterol, the cholesterol lowering entry is on record as “demonstrated a significant lowering of cholesterol”.
